Assay results as given in patent publication US20220378706A1, “PHARMACEUTICAL COMPOSITION COMPRISING PDE9 INHIBITOR” (Eisai R&D Management Co., Ltd., priority 2017, published 2022).
Where two headings read alike, the source gives them in different places.

Assay: Single dose clinical study: plasma Compound A pharmacokinetics
Format: in vivo, human
Method: This was a single center, single dose, randomized, double blind, placebo controlled study in healthy subjects. It consisted of 4 parts: Parts A, B, C, and D. Each of the four study parts had 2 phases: Prerandomization Phase and Randomization Phase. The Prerandomization Phase lasted up to 30 days and consisted of a Screening Period and a Baseline Period, during which each subject's study eligibility was determined and baseline assessments were performed.
In Part A, there were 8 sequential cohorts of healthy adult subjects (18-50 years of age). Subjects were randomly assigned to Compound A or placebo in a ratio of 6:2, respectively. Subjects in the Compound A cohorts were treated with single ascending doses of 10, 25, 50, 100, 200, 400, 800, or 1200 mg.
In Part B, there were 4 cohorts of healthy adult subjects (18-50 years of age). There were 8 subjects in Cohort 1, with 6 subjects randomly assigned to receive single doses of Compound A (400 mg) and 2 subjects randomly assigned to receive placebo. There were 7 subjects in Cohort 2 and Cohort 3, each with 6 subjects randomly assigned to receive single doses of Compound A (100 and 200 mg, respectively) and 1 subject randomly assigned to receive placebo. The dose of 100 mg selected in Cohort 2 was based on preliminary analysis of Cohort 1 data; this dose was predicted from PK/PD modeling to achieve a sustained CSF cGMP increase from baseline of approximately 200% when administered to steady state, and thereby provided a potentially therapeutic dose for further evaluation in future studies. There were 7 subjects in Cohort 4, with 6 subjects randomly assigned to receive a single dose of Compound A (50 mg [n=3] or 75 mg [n=3]) and 1 subject randomly assigned to receive placebo. The doses for Cohorts 3 and 4 were selected based on PK/PD modeling of the data in Cohorts 1 and 2.
Subjects in Cohort 2 who had received Compound A 100 mg or placebo under fasted conditions (1st Treatment Period) also participated in an evaluation of food effect on the PK of Compound A (2nd Treatment Period). After a washout period of at least 13 days (or 5 half-lives of Compound A, whichever was longer), subjects were admitted to the clinic for baseline assessments (2nd Baseline Period) and then received a single dose of the same treatment (Compound A 100 mg or placebo) after consuming a high fat and high calorie meal over 30 minutes. Blood PK samples were collected at prespecified time points. Safety evaluations were also assessed. CSF was not collected for PD evaluation during the 2nd Treatment Period. A Follow Up Visit occurred on Day 10 of Treatment Period 2.
In Part C, there was 1 cohort of 8 healthy elderly subjects (65 to 85 years of age) randomly assigned to receive a single dose of Compound A 100 mg or placebo in a ratio of 6:2, respectively.
In Part D, 3 cohorts of healthy adult Japanese subjects were randomized in parallel. There were 7 subjects in each cohort and subjects were randomly assigned to receive single doses of Compound A (25, 100, or 400 mg) or placebo in a ratio of 6:1, respectively.
Blood samples for determination of plasma Compound A concentrations were collected from predose to 216 hours postdose. On Day 1, blood PK samples were collected at predose and postdose 0.5 (30 minutes), 1, 1.5, 2, 3, 4, 5, 6, 8, 12, and 18 hours. Thereafter, samples were collected on Day 2 (24 and 36 hours postdose), Day 3 (48 hours postdose), Day 4 (72 hours postdose), Day 5 (96 hours postdose), Day 6 (120 hours postdose), Day 7 (144 hours postdose), and Day 10 (216 hours postdose).
Blood samples for determination of plasma Compound A concentrations were collected from predose to 216 hours postdose. For all cohorts, blood PK samples were collected on Day 1 at predose and postdose at 0.5 (30 minutes), 1, 1.5, 2, 3, 4, 5, 6, 8, 10, 12, and 18 hours. […]

[1] = 100 mg after high-fat and high-calorie meal
[2] = 400 mg, with weight as a covariate
[3] = Elderly:Younger Adults, single oral 100 mg
[4] = Japanese:non-Japanese, 25 mg, with weight as covariate
[5] = Japanese:non-Japanese, 25 mg, without weight as covariate
[6] = Japanese:non-Japanese, 100 mg, with weight as covariate
[7] = Japanese:non-Japanese, 100 mg, without weight as covariate
[8] = Japanese:non-Japanese, 400 mg, with weight as covariate
[9] = Japanese:non-Japanese, 400 mg, without weight as covariate

Compound: COc1ncc(C)c(-c2ccc3c(c2)[nH]c(=O)c2cnn([C@H]4CCOC4)c23)c1C [Compound A, (S)-7-(2-methoxy-3,5-dimethylpyridin-4-yl)-1-(tetrahydrofuran-3-yl)-1H-pyrazolo[4,3-c]quin olin-4(5H)-one]
- geometric LS mean Cmax higher in Japanese than non-Japanese (25 mg, with weight as a covariate): 35.6%
- geometric LS mean AUC(0-inf) higher in elderly than in younger healthy adult subjects (100 mg): approximately 41.5%
- geometric LS mean Cmax higher in elderly than in younger healthy adult subjects (100 mg): approximately 45.5%
- increase in the geometric LS mean Cmax, fed vs fasted (100 mg after high fat and high calorie meal): 44.4%
- increase in the geometric LS mean AUC(0-inf), fed vs fasted [1]: 19.2%
- increase in the geometric LS mean Cmax, fed vs fasted [1]: 44.400
- geometric LS mean Cmax higher in Japanese than non-Japanese (100 mg, with weight as a covariate): 30.0%
- geometric LS mean AUC(0-inf) higher in Japanese than non-Japanese [2]: 27.9%
- geometric LS mean Cmax higher in Japanese than non-Japanese [2]: 40.4%
- geometric LS mean Cmax higher in Japanese than non-Japanese across the 3 doses (25, 100, 400 mg): 35.2%
- AUC(0-inf) Geometric LS Mean Ratio (90% CI) [3]: 1.415 (1.168, 1.715)
- Cmax Geometric LS Mean Ratio (90% CI) [3]: 1.455 (1.198, 1.766)
- AUC(0-inf) Geometric LS Mean Ratio (90% CI) (Fed:Fasted, 100 mg, Part B): 1.192 (1.003, 1.418)
- AUC(0-t) Geometric LS Mean Ratio (90% CI) (Fed:Fasted, 100 mg, Part B): 1.186 (0.992, 1.418)
- Cmax Geometric LS Mean Ratio (90% CI) (Fed:Fasted, 100 mg, Part B): 1.444 (1.210, 1.723)
- AUC(O-inf) Geometric LS Mean Ratio (90% CI) [4]: 1.035 (0.819, 1.308)
- Cmax Geometric LS Mean Ratio (90% CI) [4]: 1.356 (1.082, 1.699)
- AUC(O-inf) Geometric LS Mean Ratio (90% CI) [5]: 1.057 (0.845, 1.323)
- Cmax Geometric LS Mean Ratio (90% CI) [5]: 1.394 (1.122, 1.732)
- AUC(O-inf) Geometric LS Mean Ratio (90% CI) [6]: 0.935 (0.767, 1.140)
- Cmax Geometric LS Mean Ratio (90% CI) [6]: 1.300 (1.074, 1.573)
- AUC(O-inf) Geometric LS Mean Ratio (90% CI) [7]: 0.944 (0.778, 1.147)
- Cmax Geometric LS Mean Ratio (90% CI) [7]: 1.317 (1.091, 1.589)
- AUC(O-inf) Geometric LS Mean Ratio (90% CI) [8]: 1.279 (1.035, 1.580)
- Cmax Geometric LS Mean Ratio (90% CI) [8]: 1.404 (1.145, 1.721)
- AUC(O-inf) Geometric LS Mean Ratio (90% CI) [9]: 1.300 (1.059, 1.595)
- Cmax Geometric LS Mean Ratio (90% CI) [9]: 1.433 (1.176, 1.747)
- AUC (human, plasma, oral, 25 mg, Japanese, 25 mg, with weight as covariate, read-out: AUC(O-inf) Geometric LS Means Test): 4500 ng·h/mL
- Cmax (human, plasma, oral, 25 mg, Japanese, 25 mg, with weight as covariate, read-out: Cmax Geometric LS Means Test): 207 ng/mL
- AUC (human, plasma, oral, 25 mg, Japanese, 25 mg, without weight as covariate, read-out: AUC(O-inf) Geometric LS Means Test): 4580 ng·h/mL
- Cmax (human, plasma, oral, 25 mg, Japanese, 25 mg, without weight as covariate, read-out: Cmax Geometric LS Means Test): 212 ng/mL
- AUC (human, plasma, oral, 25 mg, non-Japanese, 25 mg, with weight as covariate, read-out: AUC(O-inf) Geometric LS Means Reference): 4350 ng·h/mL
- Cmax (human, plasma, oral, 25 mg, non-Japanese, 25 mg, with weight as covariate, read-out: Cmax Geometric LS Means Reference): 152 ng/mL
- AUC (human, plasma, oral, 25 mg, non-Japanese, 25 mg, without weight as covariate, read-out: AUC(O-inf) Geometric LS Means Reference): 4340 ng·h/mL
- Cmax (human, plasma, oral, 25 mg, non-Japanese, 25 mg, without weight as covariate, read-out: Cmax Geometric LS Means Reference): 152 ng/mL
- AUC(0-inf) (human, plasma, oral, 100 mg, Fasted, 100 mg, Part B, read-out: AUC(0-inf) Geometric LS Means Reference): 14500 ng·h/mL
- AUC(0-t) (human, plasma, oral, 100 mg, Fasted, 100 mg, Part B, read-out: AUC(0-t) Geometric LS Means Reference): 14400 ng·h/mL
- Cmax (human, plasma, oral, 100 mg, Fasted, 100 mg, Part B, read-out: Cmax Geometric LS Means Reference): 371 ng/mL
- AUC(0-inf) (human, plasma, oral, 100 mg, Fed, 100 mg, Part B, read-out: AUC(0-inf) Geometric LS Means Test): 17300 ng·h/mL
- AUC(0-t) (human, plasma, oral, 100 mg, Fed, 100 mg, Part B, read-out: AUC(0-t) Geometric LS Means Test): 17100 ng·h/mL
- Cmax (human, plasma, oral, 100 mg, Fed, 100 mg, Part B, read-out: Cmax Geometric LS Means Test): 536 ng/mL
- AUC (human, plasma, oral, 100 mg, Japanese, 100 mg, with weight as covariate, read-out: AUC(O-inf) Geometric LS Means Test): 14200 ng·h/mL
- Cmax (human, plasma, oral, 100 mg, Japanese, 100 mg, with weight as covariate, read-out: Cmax Geometric LS Means Test): 491 ng/mL
- AUC (human, plasma, oral, 100 mg, Japanese, 100 mg, without weight as covariate, read-out: AUC(O-inf) Geometric LS Means Test): 14200 ng·h/mL
- Cmax (human, plasma, oral, 100 mg, Japanese, 100 mg, without weight as covariate, read-out: Cmax Geometric LS Means Test): 492 ng/mL
- AUC (human, plasma, oral, 100 mg, non-Japanese, 100 mg, with weight as covariate, read-out: AUC(O-inf) Geometric LS Means Reference): 15200 ng·h/mL
- Cmax (human, plasma, oral, 100 mg, non-Japanese, 100 mg, with weight as covariate, read-out: Cmax Geometric LS Means Reference): 378 ng/mL
- AUC (human, plasma, oral, 100 mg, non-Japanese, 100 mg, without weight as covariate, read-out: AUC(O-inf) Geometric LS Means Reference): 15000 ng·h/mL
- Cmax (human, plasma, oral, 100 mg, non-Japanese, 100 mg, without weight as covariate, read-out: Cmax Geometric LS Means Reference): 373 ng/mL
- half-life (human, plasma, oral, 100 mg, read-out: mean terminal half-life longer in elderly than in younger healthy adult subjects (converted)): ~10 h
- AUC (human, plasma, oral, 400 mg, Japanese, 400 mg, with weight as covariate, read-out: AUC(O-inf) Geometric LS Means Test): 46000 ng·h/mL
- Cmax (human, plasma, oral, 400 mg, Japanese, 400 mg, with weight as covariate, read-out: Cmax Geometric LS Means Test): 1170 ng/mL
- AUC (human, plasma, oral, 400 mg, Japanese, 400 mg, without weight as covariate, read-out: AUC(O-inf) Geometric LS Means Test): 46500 ng·h/mL
- Cmax (human, plasma, oral, 400 mg, Japanese, 400 mg, without weight as covariate, read-out: Cmax Geometric LS Means Test): 1180 ng/mL
- AUC (human, plasma, oral, 400 mg, non-Japanese, 400 mg, with weight as covariate, read-out: AUC(O-inf) Geometric LS Means Reference): 36000 ng·h/mL
